Results on five molecules are retold here after ChEMBL document CHEMBL5356948, “Microtubule stabilising peptides: new paradigm towards management of neuronal disorders” (RSC Med Chem, 2023).

Data set [1] in a line: Ratio of drug concentration in CSF to plasma in Sprague-Dawley rat at 15 mg/kg,IV measured after 1 hrs. The data set is classed as ADME, organism-based. Particulars: CSF and plasma.
For data set [2], the target named is T1, Tubulin (Homo sapiens) (UniProt P68371+Q9H4B7+P0DPH7+P68366+Q13509+Q71U36+P04350+Q3ZCM7+P07437+P68363+Q9BQE3+Q6PEY2+Q13885+Q9BVA1+Q9BUF5). Briefly: Binding affinity to tubulin (unknown origin) assessed as binding constant by […] analysis. The data set is classed as protein-complex assay.
Another data set concerns the target Tubulin. Nature of the data set: Binding affinity to microtubules (unknown origin) assessed as dissociation constant. The data set is classed as protein-complex assay, Homo sapiens.
Data set [3] deals with T1, Tubulin (Homo sapiens). Briefly: Binding affinity to tubulin (unknown origin) assessed as binding constant. The format is protein-complex assay.
Data set [4] deals with T1, Tubulin (Homo sapiens). Nature of the data set: Binding affinity to microtubules (unknown origin) assessed as binding constant by turbidity assay. The data set is classed as protein-complex assay.

Peptide text beside a SMILES is read from it.

`CC[C@H](C)[C@H](NC(=O)[C@H](CO)NC(=O)[C@@H](NC(=O)[C@@H]1CCCN1C(=O)[C@H](C)NC(=O)[C@@H](N)CC(N)=O)C(C)C)C(=O)N1CCC[C@H]1C(=O)N[C@@H](CCC(N)=O)C(=O)O` [DAVUNETIDE]: the concentration ratio (Kp) at 1 h in data set [1] was 0.138. Turning to `CC[C@H](C)[C@H](NC(=O)[C@H](CO)NC(=O)[C@@H](NC(=O)[C@H](C)NC(=O)[C@@H](N)CC(N)=O)C(C)C)C(=O)N[C@@H](CCC(N)=O)C(=O)O` (H-NAVSIQ-OH), on Tubulin (Homo sapiens) [2], the Activity was 1.14 10^3/M. As for `CC[C@H](C)[C@H](NC(=O)[C@H](CCC(N)=O)NC(=O)[C@@H](NC(=O)[C@H](CO)NC(=O)CNC(=O)CNC(=O)CNC(=O)[C@@H]1CCCN1C(=O)[C@@H](NC(=O)[C@H](Cc1c[nH]cn1)NC(=O)[C@H](CCCCN)NC(=O)[C@H](CCCCN)NC(=O)CNC(=O)CNC(=O)CNC(=O)[C@@H](N)CS)C(C)C)C(C)C)C(=O)N[C@H](C(=O)N[C@@H](Cc1ccc(O)cc1)C(=O)N[C@@H](CCCCN)C(=O)N1CCC[C@H]1C(=O)N[C@H](C(=O)N[C@@H](CC(=O)O)C(=O)N[C@@H](CC(C)C)C(=O)O)C(C)C)C(C)C`, the dissociation constant Kd at Tubulin came out at 64.1 µM. For `CC(C)C[C@H](NC(=O)[C@@H](N)CO)C(=O)N[C@@H](CCCCN)C(=O)N1CCC[C@H]1C(=O)N[C@@H](C)C(=O)N[C@@H](C)C(=O)N[C@@H](CC(N)=O)C(=O)N[C@@H](CC(C)C)C(=O)N1CCC[C@H]1C(=O)N[C@@H](CC(C)C)C(=O)N[C@@H](CCCNC(=N)N)C(=O)N[C@@H](Cc1ccccc1)C(=O)O` (H-SLKPAANLPLRF-OH), the Kb at Tubulin (Homo sapiens) [3] is 2.35 10^5/M. With `CC(C)C[C@H](NC(=O)[C@H](Cc1ccccc1)NC(=O)[C@@H](NC(=O)[C@H](CCC(=O)O)NC(=O)[C@@H](N)CC(N)=O)C(C)C)C(=O)N[C@@H](CC(=O)O)C(=O)N[C@H](C(=O)N[C@@H](CCC(N)=O)C(=O)O)[C@@H](C)O` (H-NEVFLDTQ-OH), the Kb on Tubulin (Homo sapiens) [4] is 2.65 10^4/M.
